Experimental data from US8049014B2, “Aminoquinoline derivatives, preparation method thereof and pharmaceutical composition comprising the same” (Korea Institute of Science and Technology, priority 2009, dated 2011).

Assays:
[1] = system: A375 melanoma tumor cells; assay: Anti-proliferative effect on melanoma tumor cells (MTT reduction assay); type: cell-based
Method: (§1) 10% of fetal bovine serum (FBS) and 1% of penicillin/streptomycin were put into a Dulbecco's Modified Eagle (DMEM) medium, and A375P tumor cells obtained from ATCC was incubated in the above medium under a 5% CO2 atmosphere at 37° C. A375P cells were taken into 0.05% trypsin-0.02% ethylene-diamine tetraacetic acid (EDTA) and seeded it into wells of 96 well plate with 5×10^3 cells/well, and the viability of the cells was determined with a conventional [3-(4,5-dimethylthiazol-2-yl)-2,5-diphenyltetrazolium bromide, MTT] reduction assay. In the MTT efficacy experimentation, 15 μL of dye per well was put into the wells in accordance with the protocol of CellTiter 96® Assay (Promega), and then incubated for two hours, into which 100 μL of stop solution was added. The resultant was read after 24 hours. After one day of the plating, the obtained material was treated with a compound of the present invention. When it was treated with the compound, 10 mM of stock solution was prepared, and gradually diluted to one-third in dimethyl sulfoxide (DMSO). A test compound plate was prepared with 12 points, into which 0.5 μL was put (final concentration was DMSO 0.5%). Absorbance was read at a wavelength of 590 nm using EnVision 2103 (Perkin Elmer Boston, Mass., US), and GI50 values were calculated using GraphPad Prism 4.0 software.
(§2) GI50 values indicating inhibition of the compounds according to the examples of the present invention and control substances, on the proliferation of A375 melanoma tumor cells and HS27 fibroblasts. Sorafenib (BAY43-9006, Nexavar) which has been known as a substance having a good anti-proliferative effect on the melanoma tumor cells was used as a control substance.

HS27 fibroblasts = assay: Inhibition of proliferation of HS27 fibroblasts (selectivity, MTT reduction assay); type: cell-based; conditions: Homo sapiens
Method: as §1, §2

[2] = Homo sapiens, A-375, A375 melanoma tumor cells

SMILES	GI50 ([1]; A375 melanoma tumor cells)	GI50 [1, 2]	GI50 (HS27 fibroblasts)
O=C(Nc1ccc(Oc2ccnc3c(NC(=O)c4ccccc4)cccc23)cc1)c1ccc(Cl)c(C(F)(F)F)c1 [Compound 1e, N-[4-(8-benzoylaminoquinolin-4-yloxy)phenyl]-4-chloro-3-trifluoromethylbenzamide]	0.8 µM	0.77 to 0.8 µM	> 20 µM
Cc1ccc(NC(=O)c2ccc(Cl)c(C(F)(F)F)c2)cc1Oc1ccnc2c(NC(=O)c3ccccc3)cccc12 [Compound 1s, N-[3-(8-benzoylaminoquinolin-4-yloxy)-4-methylphenyl]-4-chloro-3-trifluoromethylbenzamide]		1.03 µM	> 20 µM
CC(=O)Nc1cccc2c(Oc3cc(NC(=O)c4cc(-n5cnc(C)c5)cc(C(F)(F)F)c4)ccc3C)ccnc12 [Compound 1p, N-[3-(8-acetylaminoquinolin-4-yloxy)-4-methylphenyl]-3-(4-methylimidazol-1-yl)-5-trifluoromethylbenzamide]		> 20 µM	> 20 µM
CC(=O)Nc1cccc2c(Oc3cccc(NC(=O)Nc4ccc(Cl)c(C(F)(F)F)c4)c3)ccnc12 [Compound 1h, 1-[3-(8-acetylaminoquinolin-4-yloxy)phenyl]-3-(4-chloro-3-trifluoromethylphenyl)urea]		2.32 µM	5.68 µM
CC(=O)Nc1cccc2c(Oc3cc(NC(=O)c4cccc(C(F)(F)F)c4)ccc3C)ccnc12 [Compound 1l, N-[3-(8-acetylaminoquinolin-4-yloxy)-4-methylphenyl]-3-trifluoromethylbenzamide]		1.28 µM	> 20 µM
CC(=O)Nc1cccc2c(Oc3cc(NC(=O)c4ccc(Cl)c(C(F)(F)F)c4)ccc3C)ccnc12 [Compound 1k, N-[3-(8-acetylaminoquinolin-4-yloxy)-4-methylphenyl]-4-chloro-3-trifluoromethylbenzamide]		1.3 µM	> 20 µM
CC(=O)Nc1cccc2c(Oc3cc(NC(=O)c4cc(C(F)(F)F)cc(C(F)(F)F)c4)ccc3C)ccnc12 [Compound 1m, N-[3-(8-acetylaminoquinolin-4-yloxy)-4-methylphenyl]-3,5-bistrifluoromethylbenzamide]	0.77 µM	0.77 to 0.8 µM	> 20 µM
CC(=O)Nc1cccc2c(Oc3ccc(NC(=O)c4ccc(Cl)c(C(F)(F)F)c4)cc3)ccnc12 [Compound 1d, N-[4-(8-acetylaminoquinolin-4-yloxy)phenyl]-4-chloro-3-trifluoromethylbenzamide]		3.14 µM	5.47 µM
CC(=O)Nc1cccc2c(Oc3cc(NC(=O)c4cc(N5CCC(O)CC5)cc(C(F)(F)F)c4)ccc3C)ccnc12 [Compound 1o, N-[3-(8-acetylaminoquinolin-4-yloxy)-4-methylphenyl]-3-(4-hydroxypiperidin-1-yl)-5-trifluoromethylbenzamide]		> 20 µM	> 20 µM
Nc1cccc2c(Oc3ccc(NC(=O)Nc4ccc(Cl)c(C(F)(F)F)c4)cc3)ccnc12 [Compound 1a, 1-[4-(8-aminoquinolin-4-yloxy)phenyl]-3-(4-chloro-3-trifluoromethylphenyl)urea]		3.74 µM	6.71 µM
O=C(Nc1cccc(Oc2ccnc3c(NC(=O)c4ccccc4)cccc23)c1)c1ccc(Cl)c(C(F)(F)F)c1 [Compound 1j, N-[3-(8-benzoylaminoquinolin-4-yloxy)phenyl]-4-chloro-3-trifluoromethylbenzamide]	0.78 µM	0.77 to 0.8 µM	> 20 µM
CC(=O)Nc1cccc2c(Oc3ccc(NC(=O)Nc4ccc(Cl)c(C(F)(F)F)c4)cc3)ccnc12 [Compound 1c, 1-[4-(8-acetylaminoquinolin-4-yloxy)phenyl]-3-(4-chloro-3-trifluoro-methylphenyl)urea]		4.19 µM	6.02 µM
CC(=O)Nc1cccc2c(Oc3cc(NC(=O)c4cc(C)on4)ccc3C)ccnc12 [Compound 1r, N-[3-(8-acetylaminoquinolin-4-yloxy)-4-methylphenyl]-5-methylisoxazole-3-carboxylic acid amide]		> 20 µM	> 20 µM
Nc1cccc2c(Oc3cccc(NC(=O)Nc4ccc(Cl)c(C(F)(F)F)c4)c3)ccnc12 [Compound 1f, 1-[3-(8-aminoquinolin-4-yloxy)phenyl]-3-(4-chloro-3-trifluoromethylphenyl)urea]		2.56 µM	10.4 µM
Nc1cccc2c(Oc3cccc(NC(=O)c4ccc(Cl)c(C(F)(F)F)c4)c3)ccnc12 [Compound 1g, N-[3-(8-aminoquinolin-4-yloxy)phenyl]-4-chloro-3-trifluoromethylbenzamide]		6.73 µM	> 20 µM
CC(=O)Nc1cccc2c(Oc3cc(NC(=O)c4ccccc4Cl)ccc3C)ccnc12 [Compound 1q, N-[3-(8-acetylaminoquinolin-4-yloxy)-4-methylphenyl]-2-chlorobenzamide]		2.12 µM	> 20 µM
Nc1cccc2c(Oc3ccc(NC(=O)c4ccc(Cl)c(C(F)(F)F)c4)cc3)ccnc12 [Compound 1b, N-[4-(8-aminoquinolin-4-yloxy)phenyl]-4-chloro-3-trifluoromethylbenzamide]		5.69 µM	7.63 µM
CNC(=O)c1cc(Oc2ccc(NC(=O)Nc3ccc(Cl)c(C(F)(F)F)c3)cc2)ccn1 [Sorafenib, reference compound]		5.58 µM	7.85 µM
CC(=O)Nc1cccc2c(Oc3cccc(NC(=O)c4ccc(Cl)c(C(F)(F)F)c4)c3)ccnc12 [Compound 1i, N-[3-(8-acetylaminoquinolin-4-yloxy)phenyl]-4-chloro-3-trifluoromethylbenzamide]		3.49 µM	> 20 µM
CC(=O)Nc1cccc2c(Oc3cc(NC(=O)c4ccc([N+](=O)[O-])c(C(F)(F)F)c4)ccc3C)ccnc12 [Compound 1n, N-[3-(8-acetylaminoquinolin-4-yloxy)-4-methylphenyl]-4-nitro-3-trifluoromethylbenzamide]	0.79 µM	0.77 to 0.8 µM	> 20 µM
